Laboratory results from patent US9561231B2 (AbbVie Inc., priority 2012, dated 2017).
Like-named read-outs stand apart in the source and are kept apart here.

How the values were obtained:
[1] = target: T1, first (BD1: amino acids K57-E168) bromodomain of BRD4 (Homo sapiens, UniProt O60885); assay: TR-FRET bromodomain binding assay, BRD4 BD1; settings: Ki calculated from IC50, probe Kd and probe concentration, read-out: TR-FRET Binding Ki: BRD4 (BDI_K57-E168)
T1 construct: His-tagged first (BD1: amino acids K57-E168)
In short: (§1)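 Displacement of an Alexa647-labelled BET-inhibitor from His-tagged BD1 (K57-E168) or BD2 ([…]) measured by TR-FRET in pH 6.0 sodium phosphate buffer with NaCl, EDTA, Triton X-100 and DTT.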

[2] = target: T2, second (BD2: amino acids E352-E168) bromodomain of BRD4 (Homo sapiens, UniProt O60885); assay: TR-FRET bromodomain binding assay, BRD4 BD2; settings: Ki calculated from IC50, probe Kd and probe concentration, read-out: TR-FRET Binding Ki: BRD4 (BDII_E352-M457)
T2 construct: protocol
In short: as §1

[3] = test system: breast cancer cell line MX-1; assay: MX-1 cell line proliferation assay (3-day); format: cell-based; settings: Homo sapiens, MX1, MX-1 cells, Cell Titer Glo, read-out: Cellular proliferation: EC50
Method: The impact of compounds of the Examples on cancer cell proliferation was determined using the breast cancer cell line MX-1 (ATCC) in a 3-day proliferation assay. MX-1 cells were maintained in RPMI supplemented with 10% FBS at 37° C. and an atmosphere of 5% CO2. For compound testing, MX-1 cells were plated in 96-well black bottom plates at a density of 5000 cells/well in 90 μL of culture media and incubated at 37° overnight to allow cell adhesion and spreading. Compound dilution series were prepared in DMSO via a 3-fold serial dilution from 3 mM to 0.1 μM. The DMSO dilution series were then diluted 1:100 in phosphate buffered saline, and 10 μL of the resulted solution were added to the appropriate wells of the MX-1 cell plate. The final compound concentrations in the wells were 3, 1, 0.3, 0.1, 0.03, 0.01, 0.003, 0.001, 0.0003 and 0.0001 μM.
Luminescence readings from the Cell Titer Glo assay were normalized to the DMSO treated cells and analyzed using the GraphPad Prism software with sigmoidal curve fitting to obtain EC50s.

[4] = TR-FRET assay protocol (A-G, compound concentration range)
[5] = TR-FRET assay protocol (D, E or G) per compound

COc1cc(=O)n(C)cc1-c1cc(NS(C)(=O)=O)ccc1Oc1ccccc1 [Example 259, N-[3-(4-methoxy-1-methyl-6-oxo-1,6-dihydropyridin-3-yl)-4-phenoxyphenyl]methanesulfonamide]
Ki [1, 4]: 28.6 nM | Ki [2, 4]: 9.41 nM | EC50 ([3]; 72 h incubation): 130 nM

CCOc1cc(=O)n(C)cc1-c1cc(S(=O)(=O)N2CCc3ccccc32)ccc1Oc1ccc(F)cc1F [Example 419, 5-[2-(2,4-difluorophenoxy)-5-(2,3-dihydro-1H-indol-1-ylsulfonyl)phenyl]-4-ethoxy-1-methylpyridin-2(1H)-one]
Ki [1, 5]: 25.3 nM | Ki [2, 5]: 2.84 nM | EC50 ([3]; 72 hours with compound): 1000 nM

CCS(=O)(=O)Nc1ccc(Oc2ccc(F)cc2F)c(-c2cn(C)c(=O)cc2-c2ccc(N3CCN(C)CC3)cc2)c1 [Example 330, N-[4-(2,4-difluorophenoxy)-3-{1-methyl-4-[4-(4-methylpiperazin-1-yl)phenyl]-6-oxo-1,6-dihydropyridin-3-yl}phenyl]ethanesulfonamide]
Ki [1, 4]: 1.96 nM | Ki [2, 4]: 0.584 nM | EC50 ([3]; 72 h incubation): 49.7 nM

CCS(=O)(=O)Nc1ccc(Oc2ccc(F)cc2F)c(-c2cn(C)c(=O)cc2OCC(C)(C)O)c1 [Example 376, N-{4-(2,4-difluorophenoxy)-3-[4-(2-hydroxy-2-methylpropoxy)-1-methyl-6-oxo-1,6-dihydropyridin-3-yl]phenyl}ethanesulfonamide]
Ki [1, 5]: 123 nM | Ki [2, 5]: 17.1 nM | EC50 ([3]; 72 hours with compound): 708 nM

CCOc1cc(=O)n(C)cc1-c1cc(NS(=O)(=O)CC)ccc1Oc1c(F)cc(Cl)cc1F [Example 404, N-[4-(4-chloro-2,6-difluorophenoxy)-3-(4-ethoxy-1-methyl-6-oxo-1,6-dihydropyridin-3-yl)phenyl]ethanesulfonamide]
Ki [1, 5]: 11.8 nM | Ki [2, 5]: 1.43 nM | EC50 ([3]; 72 hours with compound): 24.7 nM

Cn1nc(-c2ccccc2Oc2ccccc2)c(-c2ccc(CN3CCCC3)cc2)cc1=O [Example 71, 2-methyl-6-(2-phenoxyphenyl)-5-[4-(pyrrolidin-1-ylmethyl)phenyl]pyridazin-3(2H)-one]
Ki [1, 4]: 62.2 nM | Ki [2, 4]: 133 nM | EC50 ([3]; 72 h incubation): 398 nM

COC(=O)CS(=O)(=O)Nc1ccc(Oc2ccccc2)c(-c2ccc(=O)n(C)c2)c1 [Example 225, methyl {[3-(1-methyl-6-oxo-1,6-dihydropyridin-3-yl)-4-phenoxyphenyl]sulfamoyl}acetate]
Ki [1, 4]: 152 nM | Ki [2, 4]: 107 nM | EC50 ([3]; 72 h incubation): 10000 nM

CCS(=O)(=O)Nc1ccc(Oc2ccc(F)cc2F)c(-c2cc(Cl)c(=O)n(C)c2)c1 [Example 283, N-[3-(5-chloro-1-methyl-6-oxo-1,6-dihydropyridin-3-yl)-4-(2,4-difluorophenoxy)phenyl]ethanesulfonamide]
Ki [1, 4]: 17.4 nM | Ki [2, 4]: 39.4 nM | EC50 ([3]; 72 h incubation): 194 nM

CCOc1cc(=O)n(C)cc1-c1cc(N(C)S(=O)(=O)Cc2ccccc2)ccc1Oc1ccc(F)cc1F [Example 420, N-[4-(2,4-difluorophenoxy)-3-(4-ethoxy-1-methyl-6-oxo-1,6-dihydropyridin-3-yl)phenyl]-N-methyl-1-phenylmethanesulfonamide]
Ki [1, 5]: > 238 nM | Ki [2, 5]: 22.1 nM | EC50 ([3]; 72 hours with compound): 832 nM

COc1cc(=O)n(C)nc1-c1cc(N(C)S(C)(=O)=O)ccc1Oc1ccccc1 [Example 23, N-[3-(4-methoxy-1-methyl-6-oxo-1,6-dihydropyridazin-3-yl)-4-phenoxyphenyl]-N-methylmethanesulfonamide]
Ki [1, 4]: 480 nM | Ki [2, 4]: 214 nM | EC50 ([3]; 72 h incubation): 3800 nM

CCN(CC)Cc1ccc(-c2cc(=O)n(C)nc2-c2ccccc2Oc2ccccc2)cc1 [Example 69, 5-{4-[(diethylamino)methyl]phenyl}-2-methyl-6-(2-phenoxyphenyl)pyridazin-3(2H)-one]
Ki [1, 4]: 98 nM | Ki [2, 4]: 225 nM | EC50 ([3]; 72 h incubation): > 3000 nM

CCNS(=O)(=O)c1ccc(Oc2ccccc2)c(-c2ccc(=O)n(C)c2)c1 [Example 255, N-ethyl-3-(1-methyl-6-oxo-1,6-dihydropyridin-3-yl)-4-phenoxybenzenesulfonamide]
Ki [1, 4]: 635 nM | Ki [2, 4]: 142 nM | EC50 ([3]; 72 h incubation): > 3000 nM

CCS(=O)(=O)Nc1ccc(Oc2ccc(F)cc2F)c(-c2cn(C)c(=O)cc2OCCC(C)(C)O)c1 [Example 372, N-{4-(2,4-difluorophenoxy)-3-[4-(3-hydroxy-3-methylbutoxy)-1-methyl-6-oxo-1,6-dihydropyridin-3-yl]phenyl}ethanesulfonamide]
Ki [1, 4]: 33.5 nM | Ki [2, 4]: 14.3 nM | EC50 ([3]; 72 h incubation): 205 nM

CCOC(=O)c1cccc(-c2cc(=O)n(C)nc2-c2ccccc2Oc2ccccc2)c1 [Example 59, ethyl 3-[1-methyl-6-oxo-3-(2-phenoxyphenyl)-1,6-dihydropyridazin-4-yl]benzoate]
Ki [1, 4]: 9790 nM | Ki [2, 4]: 2110 nM | EC50 ([3]; 72 h incubation): > 30000 nM

Cn1cc(-c2cc(NC(=O)CN)ccc2Oc2ccccc2)ccc1=O [Example 253, N-[3-(1-methyl-6-oxo-1,6-dihydropyridin-3-yl)-4-phenoxyphenyl]glycinamide]
Ki [1, 4]: 942 nM | Ki [2, 4]: 3290 nM | EC50 ([3]; 72 h incubation): > 3000 nM

Cn1nc(-c2ccccc2Oc2ccccc2)c(-c2ccc(CN3CCNCC3)cc2)cc1=O [Example 70, 2-methyl-6-(2-phenoxyphenyl)-5-[4-(piperazin-1-ylmethyl)phenyl]pyridazin-3(2H)-one]
Ki [1, 4]: 89.1 nM | Ki [2, 4]: 62 nM | EC50 ([3]; 72 h incubation): 815 nM

Cn1nc(-c2ccccc2Oc2ccccc2)c(-c2ccc(CCCO)cc2)cc1=O [Example 101, 5-[4-(3-hydroxypropyl)phenyl]-2-methyl-6-(2-phenoxyphenyl)pyridazin-3(2H)-one]
Ki [1, 4]: 233 nM | Ki [2, 4]: 147 nM | EC50 ([3]; 72 h incubation): 1130 nM

CCS(=O)(=O)Nc1ccc(Oc2ccc(F)cc2F)c(-c2cn(C)c(=O)cc2-c2ccc(CO)cc2)c1 [Example 278, N-[4-(2,4-difluorophenoxy)-3-{4-[4-(hydroxymethyl)phenyl]-1-methyl-6-oxo-1,6-dihydropyridin-3-yl]phenyl}ethanesulfonamide]
Ki [1, 4]: 7.53 nM | Ki [2, 4]: 1.39 nM | EC50 ([3]; 72 h incubation): 63.4 nM

Cn1nc(-c2ccccc2Oc2ccccc2)c(-c2ccc(C3=NCCCO3)cc2)cc1=O [Example 95, 5-[4-(5,6-dihydro-4H-1,3-oxazin-2-yl)phenyl]-2-methyl-6-(2-phenoxyphenyl)pyridazin-3(2H)-one]
Ki [1, 4]: 172 nM | Ki [2, 4]: 145 nM | EC50 ([3]; 72 h incubation): > 3000 nM

CCOc1cc(=O)n(C)cc1-c1cc(NS(=O)(=O)CC)ccc1Oc1ccc(F)cc1 [Example 396, N-[3-(4-ethoxy-1-methyl-6-oxo-1,6-dihydropyridin-3-yl)-4-(4-fluorophenoxy)phenyl]ethanesulfonamide]
Ki [1, 5]: 9.54 nM | Ki [2, 5]: 3.17 nM | EC50 ([3]; 72 hours with compound): 15.6 nM

COc1cc(=O)n(C)cc1-c1ccccc1Oc1ccccc1 [Example 258, 4-methoxy-1-methyl-5-(2-phenoxyphenyl)pyridin-2(1H)-one]
Ki [1, 4]: 730 nM | Ki [2, 4]: 382 nM | EC50 ([3]; 72 h incubation): 1510 nM

CCS(=O)(=O)Nc1ccc(Oc2ccc(F)cc2F)c(-c2cn(C)c(=O)cc2OC2CCNCC2)c1 [Example 322, N-{4-(2,4-difluorophenoxy)-3-[1-methyl-6-oxo-4-(piperidin-4-yloxy)-1,6-dihydropyridin-3-yl]phenyl}ethanesulfonamide]
Ki [1, 4]: 437 nM | Ki [2, 4]: 90.9 nM | EC50 ([3]; 72 h incubation): > 3000 nM

CCOc1cc(=O)n(C)cc1-c1cc(NS(=O)(=O)CC)ccc1O[C@H]1CC[C@H](NC(=O)OC(C)(C)C)CC1 [Example 395, tert-butyl(trans-4-{2-(4-ethoxy-1-methyl-6-oxo-1,6-dihydropyridin-3-yl)-4-[(ethylsulfonyl)amino]phenoxy}cyclohexyl)carbamate]
Ki [1, 5]: 105 nM | Ki [2, 5]: 221 nM | EC50 ([3]; 72 hours with compound): 479 nM

CCS(=O)(=O)Nc1ccc(Oc2ccc(F)cc2F)c(-c2c[nH]c(=O)c(C)c2)c1 [Example 264, N-[4-(2,4-difluorophenoxy)-3-(5-methyl-6-oxo-1,6-dihydropyridin-3-yl)phenyl]ethanesulfonamide]
Ki [1, 4]: 33.5 nM | Ki [2, 4]: 55.3 nM | EC50 ([3]; 72 h incubation): 176 nM

Cn1cc(-c2cc(NS(C)(=O)=O)ccc2Oc2cccc(Cl)c2)ccc1=O [Example 243, N-[4-(3-chlorophenoxy)-3-(1-methyl-6-oxo-1,6-dihydropyridin-3-yl)phenyl]methanesulfonamide]
Ki [1, 4]: 115 nM | Ki [2, 4]: 257 nM | EC50 ([3]; 72 h incubation): 279 nM
